Measurements: ChEMBL document CHEMBL2057176, “Synthesis and in vitro evaluation of [18F](R)-FEPAQ: a potential PET ligand for VEGFR2” (Bioorg Med Chem Lett, 2012)
Active and inactive are the calls of the source. The rule behind the calls is not given here.

Experiments:
[1] = biological target: T1, Vascular endothelial growth factor receptor 2 (Homo sapiens, UniProt P35968); assay: Binding affinity to VEGFR2 in isolated human glioblastoma at 0.18 nM after 60 mins by phosphor image autoradiographic analysis in presence of ZM-323881; conditions: tested as the 18F-labelled form
[2] = biological target: T1, Vascular endothelial growth factor receptor 2; assay: Inhibition of human VEGFR2 by fluorescence-based electrophoretic mobility-shift assay
[3] = biological target: T1, Vascular endothelial growth factor receptor 2; assay: Binding affinity to VEGFR2 in isolated human glioblastoma at 0.18 nM after 60 mins by phosphor image autoradiographic analysis in presence of (R)-PAQ; conditions: tested as the 18F-labelled form
[4] = biological target: T1, Vascular endothelial growth factor receptor 2; assay: Binding affinity to VEGFR2 in isolated human glioblastoma at 0.18 nM after 60 mins by phosphor image autoradiographic analysis; conditions: tested as the 18F-labelled form

T1 sequence (P35968 whole entry): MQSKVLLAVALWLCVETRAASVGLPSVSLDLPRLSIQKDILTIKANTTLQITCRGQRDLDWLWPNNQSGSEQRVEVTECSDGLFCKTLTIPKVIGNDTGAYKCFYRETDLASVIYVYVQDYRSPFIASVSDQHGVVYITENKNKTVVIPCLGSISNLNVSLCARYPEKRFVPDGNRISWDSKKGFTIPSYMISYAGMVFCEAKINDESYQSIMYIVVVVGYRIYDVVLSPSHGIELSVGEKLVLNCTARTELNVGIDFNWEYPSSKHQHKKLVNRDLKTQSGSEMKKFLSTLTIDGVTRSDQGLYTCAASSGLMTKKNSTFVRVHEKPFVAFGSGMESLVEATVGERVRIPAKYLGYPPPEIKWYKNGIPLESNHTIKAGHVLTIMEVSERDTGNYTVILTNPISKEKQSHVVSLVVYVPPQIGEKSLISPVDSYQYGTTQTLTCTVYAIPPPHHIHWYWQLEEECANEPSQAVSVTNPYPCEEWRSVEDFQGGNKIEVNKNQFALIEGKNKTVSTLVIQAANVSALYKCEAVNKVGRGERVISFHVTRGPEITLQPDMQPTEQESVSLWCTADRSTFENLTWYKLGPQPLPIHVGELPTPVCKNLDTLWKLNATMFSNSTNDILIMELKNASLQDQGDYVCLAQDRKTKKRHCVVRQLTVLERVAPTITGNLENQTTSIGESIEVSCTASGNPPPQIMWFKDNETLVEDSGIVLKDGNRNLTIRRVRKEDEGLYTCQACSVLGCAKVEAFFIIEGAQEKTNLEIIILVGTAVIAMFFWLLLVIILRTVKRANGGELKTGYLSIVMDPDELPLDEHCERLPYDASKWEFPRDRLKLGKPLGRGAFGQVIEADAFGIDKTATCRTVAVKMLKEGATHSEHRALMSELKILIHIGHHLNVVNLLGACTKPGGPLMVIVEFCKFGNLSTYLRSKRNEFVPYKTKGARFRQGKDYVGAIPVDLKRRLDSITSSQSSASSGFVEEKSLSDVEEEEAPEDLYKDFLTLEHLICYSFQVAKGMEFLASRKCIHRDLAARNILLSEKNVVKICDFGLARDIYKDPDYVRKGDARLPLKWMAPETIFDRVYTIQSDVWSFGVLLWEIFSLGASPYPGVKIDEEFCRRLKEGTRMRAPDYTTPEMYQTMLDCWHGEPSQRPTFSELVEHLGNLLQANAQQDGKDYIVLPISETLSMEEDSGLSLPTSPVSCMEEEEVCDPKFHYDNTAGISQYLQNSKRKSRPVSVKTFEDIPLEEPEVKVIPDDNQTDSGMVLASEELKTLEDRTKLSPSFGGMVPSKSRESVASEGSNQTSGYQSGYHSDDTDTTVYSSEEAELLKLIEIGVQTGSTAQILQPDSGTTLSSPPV

COc1cc2c(Nc3ccc(Br)cc3F)ncnc2cc1OC[C@@H]1CCCN(CCF)C1
Activity [1]: inactive
IC50 [2]: 40 nM
Activity [3]: inactive
Activity [4]: Active
